Strand notation (5' to 3'): a small letter for the sugar, then the base; units joined by * are phosphorothioate-linked, units joined directly phosphodiester-linked; [ ] holds rarer units or linkages, { } end groups; capitals alone tell only the bases. d = 2'-deoxy (DNA); m = 2'-O-methyl; f = 2'-fluoro
Test system: human EPAS1 (Hif2α) cDNA in psiCHECK2 (Renilla luciferase/EPAS1 fusion mRNA) in Hep3B cells
Assay: Efficacy screen of Hif2α RNAi triggers in vitro, dual-luciferase reporter assay (1 nM and 0.1 nM)
Assay type: cell-based
Settings: Hep3B cells co-transfected with EPAS1-psiCHECK2, Renilla luciferase normalized to firefly luciferase
Method in brief: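 Knockdown read by dual-luciferase assay: Renilla signal from the Renilla/EPAS1 fusion transcript divided by firefly luciferase expressed from the same plasmid. Triggers (modified canonical siRNAs, 1 nM or 0.1 nM) were co-transfected with 25 ng reporter plasmid per well into human hepatocellular carcinoma Hep3B cells.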

2360 (sense fGmGfGmAfGmCfAmCfUmGfCmGfCmGfCmUfAmUfAdT; antisense dTfAmUfAmGfCmGfCmGfCmAfGmUfGmCfUmCfCmCdT*dT; siRNA) [compound 2360]
Relative Rluc-Hif2α (0.1 nM RNAi trigger): 1.102 ± 0.119 | Relative Rluc-Hif2α (1 nM RNAi trigger): 0.962 ± 0.167

2361 (sense fGmGfAmGfCmAfCmUfGmCfGmCfGmCfUmAfUmCfAdT; antisense dTfGmAfUmAfGmCfGmCfGmCfAmGfUmGfCmUfCmCdT*dT; siRNA) [compound 2361]
Relative Rluc-Hif2α (0.1 nM RNAi trigger): 0.800 ± 0.198 | Relative Rluc-Hif2α (1 nM RNAi trigger): 0.603 ± 0.133

2362 (sense fAmGfCmAfCmUfGmCfGmCfGmCfUmAfUmCfCmCfAdT; antisense dTfGmGfGmAfUmAfGmCfGmCfGmCfAmGfUmGfCmUdT*dT; siRNA) [compound 2362]
Relative Rluc-Hif2α (0.1 nM RNAi trigger): 0.673 ± 0.089 | Relative Rluc-Hif2α (1 nM RNAi trigger): 0.454 ± 0.069

2363 (sense fUmAfUmUfGmCfUmGfCmCfAmAfGmAfGmGfGmUfAdT; antisense dTfAmCfCmCfUmCfUmUfGmGfCmAfGmCfAmAfUmAdT*dT; siRNA) [compound 2363]
Relative Rluc-Hif2α (0.1 nM RNAi trigger): 0.653 ± 0.199 | Relative Rluc-Hif2α (1 nM RNAi trigger): 0.452 ± 0.091

2364 (sense fGmGfUmCfUmGfAmUfGmGfCmAfCmGfUmUfGmUfAdT; antisense dTfAmCfAmAfCmGfUmGfCmCfAmUfCmAfGmAfCmCdT*dT; siRNA) [compound 2364]
Relative Rluc-Hif2α (0.1 nM RNAi trigger): 1.070 ± 0.042 | Relative Rluc-Hif2α (1 nM RNAi trigger): 0.855 ± 0.282

2365 (sense fCmUfGmAfUmGfGmCfAmCfGmUfUmGfUmGfGmGfAdT; antisense dTfCmCfCmAfCmAfAmCfGmUfGmCfCmAfUmCfAmGdT*dT; siRNA) [compound 2365]
Relative Rluc-Hif2α (0.1 nM RNAi trigger): 1.132 ± 0.107 | Relative Rluc-Hif2α (1 nM RNAi trigger): 1.259 ± 0.247

2366 (sense fGmGfCmAfCmGfUmUfGmUfGmGfGmGfUmCfGmGfAdT; antisense dTfCmCfGmAfCmCfCmCfAmCfAmAfCmGfUmGfCmCdT*dT; siRNA) [compound 2366]
Relative Rluc-Hif2α (0.1 nM RNAi trigger): 0.879 ± 0.223 | Relative Rluc-Hif2α (1 nM RNAi trigger): 0.695 ± 0.115

2367 (sense fGmCfAmCfGmUfUmGfUmGfGmGfGmUfCmGfGmGfAdT; antisense dTfCmCfCmGfAmCfCmCfCmAfCmAfAmCfGmUfGmCdT*dT; siRNA) [compound 2367]
Relative Rluc-Hif2α (0.1 nM RNAi trigger): 0.665 ± 0.064 | Relative Rluc-Hif2α (1 nM RNAi trigger): 0.376 ± 0.039

2368 (sense fCmAfCmGfUmUfGmUfGmGfGmGfUmCfGmGfGmGfAdT; antisense dTfCmCfCmCfGmAfCmCfCmCfAmCfAmAfCmGfUmGdT*dT; siRNA) [compound 2368]
Relative Rluc-Hif2α (0.1 nM RNAi trigger): 1.036 ± 0.063 | Relative Rluc-Hif2α (1 nM RNAi trigger): 1.140 ± 0.221

2369 (sense fGmCfGmGfGmGfAmAfGmUfGmCfUmCfUmAfAmCfAdT; antisense dTfGmUfUmAfGmAfGmCfAmCfUmUfCmCfCmCfGmCdT*dT; siRNA) [compound 2369]
Relative Rluc-Hif2α (0.1 nM RNAi trigger): 0.464 ± 0.032 | Relative Rluc-Hif2α (1 nM RNAi trigger): 0.338 ± 0.055

2370 (sense fCmGfGmGfGmAfAmGfUmGfCmUfCmUfAmAfCmUfAdT; antisense dTfAmGfUmUfAmGfAmGfCmAfCmUfUmCfCmCfCmGdT*dT; siRNA) [compound 2370]
Relative Rluc-Hif2α (0.1 nM RNAi trigger): 0.498 ± 0.128 | Relative Rluc-Hif2α (1 nM RNAi trigger): 0.294 ± 0.026

2371 (sense fUmUfAmAfGmGfUmUfUmUfGmUfUmGfCmUfAmGfAdT; antisense dTfCmUfAmGfCmAfAmCfAmAfAmAfCmCfUmUfAmAdT*dT; siRNA) [compound 2371]
Relative Rluc-Hif2α (0.1 nM RNAi trigger): 0.193 ± 0.030 | Relative Rluc-Hif2α (1 nM RNAi trigger): 0.166 ± 0.037

2372 (sense fGmUfUmGfCmUfAmGfCmCfCmUfUmCfAmAfGmUfAdT; antisense dTfAmCfUmUfGmAfAmGfGmGfCmUfAmGfCmAfAmCdT*dT; siRNA) [compound 2372]
Relative Rluc-Hif2α (0.1 nM RNAi trigger): 0.831 ± 0.103 | Relative Rluc-Hif2α (1 nM RNAi trigger): 0.514 ± 0.044

2373 (sense fGmAfGmCfUmAfUmGfUmGfAmCfUmCfGmGfAmUfAdT; antisense dTfAmUfCmCfGmAfGmUfCmAfCmAfUmAfGmCfUmCdT*dT; siRNA) [compound 2373]
Relative Rluc-Hif2α (0.1 nM RNAi trigger): 0.369 ± 0.082 | Relative Rluc-Hif2α (1 nM RNAi trigger): 0.162 ± 0.032

2374 (sense fGmCfUmAfUmGfUmGfAmCfUmCfGmGfAmUfGmGfAdT; antisense dTfCmCfAmUfCmCfGmAfGmUfCmAfCmAfUmAfGmCdT*dT; siRNA) [compound 2374]
Relative Rluc-Hif2α (0.1 nM RNAi trigger): 0.355 ± 0.020 | Relative Rluc-Hif2α (1 nM RNAi trigger): 0.192 ± 0.014

2375 (sense fCmGfGmAfUmGfGmUfCmUfUmUfCmAfCmAfCmGfAdT; antisense dTfCmGfUmGfUmGfAmAfAmGfAmCfCmAfUmCfCmGdT*dT; siRNA) [compound 2375]
Relative Rluc-Hif2α (0.1 nM RNAi trigger): 0.481 ± 0.062 | Relative Rluc-Hif2α (1 nM RNAi trigger): 0.305 ± 0.040

2376 (sense fGmAfUmGfGmUfCmUfUmUfCmAfCmAfCmGfGmCfAdT; antisense dTfGmCfCmGfUmGfUmGfAmAfAmGfAmCfCmAfUmCdT*dT; siRNA) [compound 2376]
Relative Rluc-Hif2α (0.1 nM RNAi trigger): 0.546 ± 0.115 | Relative Rluc-Hif2α (1 nM RNAi trigger): 0.228 ± 0.029

2377 (sense fUmGfGmUfCmUfUmUfCmAfCmAfCmGfGmCfAmCfAdT; antisense dTfGmUfGmCfCmGfUmGfUmGfAmAfAmGfAmCfCmAdT*dT; siRNA) [compound 2377]
Relative Rluc-Hif2α (0.1 nM RNAi trigger): 0.900 ± 0.189 | Relative Rluc-Hif2α (1 nM RNAi trigger): 0.958 ± 0.189

2378 (sense fAmAfCmUfAmCfCmAfUmGfAmGfAmUfGmGfUmUfAdT; antisense dTfAmAfCmCfAmUfCmUfCmAfUmGfGmUfAmGfUmUdT*dT; siRNA) [compound 2378]
Relative Rluc-Hif2α (0.1 nM RNAi trigger): 0.994 ± 0.246 | Relative Rluc-Hif2α (1 nM RNAi trigger): 0.734 ± 0.170

2379 (sense fUmAfCmCfAmUfGmAfGmAfUmGfGmUfUmUfAmGfAdT; antisense dTfCmUfAmAfAmCfCmAfUmCfUmCfAmUfGmGfUmAdT*dT; siRNA) [compound 2379]
Relative Rluc-Hif2α (0.1 nM RNAi trigger): 0.858 ± 0.098 | Relative Rluc-Hif2α (1 nM RNAi trigger): 0.939 ± 0.204

2380 (sense fCmCfAmAfGmCfUmCfAmCfGmAfCmCfUmUfGmGfAdT; antisense dTfCmCfAmAfGmGfUmCfGmUfGmAfGmCfUmUfGmGdT*dT; siRNA) [compound 2380]
Relative Rluc-Hif2α (0.1 nM RNAi trigger): 1.128 ± 0.285 | Relative Rluc-Hif2α (1 nM RNAi trigger): 1.722 ± 0.101

2381 (sense fAmCfGmAfCmCfUmUfGmGfAmGfCmCfCmCfGmUfAdT; antisense dTfAmCfGmGfGmGfCmUfCmCfAmAfGmGfUmCfGmUdT*dT; siRNA) [compound 2381]
Relative Rluc-Hif2α (0.1 nM RNAi trigger): 0.756 ± 0.109 | Relative Rluc-Hif2α (1 nM RNAi trigger): 1.063 ± 0.191

2382 (sense fGmGfGmUfAmAfGmAfGmGfGmAfCmGfAmCfAmCfAdT; antisense dTfGmUfGmUfCmGfUmCfCmCfUmCfUmUfAmCfCmCdT*dT; siRNA) [compound 2382]
Relative Rluc-Hif2α (0.1 nM RNAi trigger): 1.070 ± 0.064 | Relative Rluc-Hif2α (1 nM RNAi trigger): 1.151 ± 0.365

2383 (sense fGmGfUmAfAmGfAmGfGmGfAmCfGmAfCmAfCmCfAdT; antisense dTfGmGfUmGfUmCfGmUfCmCfCmUfCmUfUmAfCmCdT*dT; siRNA) [compound 2383]
Relative Rluc-Hif2α (0.1 nM RNAi trigger): 0.833 ± 0.082 | Relative Rluc-Hif2α (1 nM RNAi trigger): 1.060 ± 0.292

2384 (sense fGmUfAmAfGmAfGmGfGmAfCmGfAmCfAmCfCmUfAdT; antisense dTfAmGfGmUfGmUfCmGfUmCfCmCfUmCfUmUfAmCdT*dT; siRNA) [compound 2384]
Relative Rluc-Hif2α (0.1 nM RNAi trigger): 0.533 ± 0.067 | Relative Rluc-Hif2α (1 nM RNAi trigger): 0.439 ± 0.101

2385 (sense fUmGfGmUfUmUfUmUfCmAfAmUfAmCfCmAfAmUfAdT; antisense dTfAmUfUmGfGmUfAmUfUmGfAmAfAmAfAmCfCmAdT*dT; siRNA) [compound 2385]
Relative Rluc-Hif2α (0.1 nM RNAi trigger): 0.701 ± 0.178 | Relative Rluc-Hif2α (1 nM RNAi trigger): 0.515 ± 0.089

2386 (sense fUmUfCmAfAmUfAmCfCmAfAmUfUmAfCmAfUmGfAdT; antisense dTfCmAfUmGfUmAfAmUfUmGfGmUfAmUfUmGfAmAdT*dT; siRNA) [compound 2386]
Relative Rluc-Hif2α (0.1 nM RNAi trigger): 0.603 ± 0.032 | Relative Rluc-Hif2α (1 nM RNAi trigger): 0.274 ± 0.087

2387 (sense fAmUfAmCfCmAfAmUfUmAfCmAfUmGfGmAfAmCfAdT; antisense dTfGmUfUmCfCmAfUmGfUmAfAmUfUmGfGmUfAmUdT*dT; siRNA) [compound 2387]
Relative Rluc-Hif2α (0.1 nM RNAi trigger): 0.436 ± 0.028 | Relative Rluc-Hif2α (1 nM RNAi trigger): 0.201 ± 0.063

2388 (sense fCmCfAmAfCmUfAmUfUmUfAmGfUmAfAmGfCmCfAdT; antisense dTfGmGfCmUfUmAfCmUfAmAfAmUfAmGfUmUfGmGdT*dT; siRNA) [compound 2388]
Relative Rluc-Hif2α (0.1 nM RNAi trigger): 0.901 ± 0.318 | Relative Rluc-Hif2α (1 nM RNAi trigger): 0.436 ± 0.021

2389 (sense fAmAfCmUfAmUfUmUfAmGfUmAfAmGfCmCfCmGfAdT; antisense dTfCmGfGmGfCmUfUmAfCmUfAmAfAmUfAmGfUmUdT*dT; siRNA) [compound 2389]
Relative Rluc-Hif2α (0.1 nM RNAi trigger): 1.085 ± 0.307 | Relative Rluc-Hif2α (1 nM RNAi trigger): 0.820 ± 0.184

2390 (sense fAmCfUmAfUmUfUmAfGmUfAmAfGmCfCmCfGmGfAdT; antisense dTfCmCfGmGfGmCfUmUfAmCfUmAfAmAfUmAfGmUdT*dT; siRNA) [compound 2390]
Relative Rluc-Hif2α (0.1 nM RNAi trigger): 0.772 ± 0.175 | Relative Rluc-Hif2α (1 nM RNAi trigger): 0.568 ± 0.108

2391 (sense fAmGfAmAfAmUfUmCfCmUfUmAfGmUfCmAfUmGfAdT; antisense dTfCmAfUmGfAmCfUmAfAmGfGmAfAmUfUmUfCmUdT*dT; siRNA) [compound 2391]
Relative Rluc-Hif2α (0.1 nM RNAi trigger): 0.273 ± 0.006 | Relative Rluc-Hif2α (1 nM RNAi trigger): 0.129 ± 0.015

2392 (sense fCmAfUmUfAmAfGmGfGmCfAmUfUmUfUmAfCmCfAdT; antisense dTfGmGfUmAfAmAfAmUfGmCfCmCfUmUfAmAfUmGdT*dT; siRNA) [compound 2392]
Relative Rluc-Hif2α (0.1 nM RNAi trigger): 0.636 ± 0.039 | Relative Rluc-Hif2α (1 nM RNAi trigger): 0.283 ± 0.052

2393 (sense fUmAfAmGfGmGfCmAfUmUfUmUfAmCfCmCfUmUfAdT; antisense dTfAmAfGmGfGmUfAmAfAmAfUmGfCmCfCmUfUmAdT*dT; siRNA) [compound 2393]
Relative Rluc-Hif2α (0.1 nM RNAi trigger): 0.862 ± 0.388 | Relative Rluc-Hif2α (1 nM RNAi trigger): 1.049 ± 0.089

2394 (sense fAmGfCmUfUmCfAmUfAmUfUmAfAmCfCmCfUmAfAdT; antisense dTfUmAfGmGfGmUfUmAfAmUfAmUfGmAfAmGfCmUdT*dT; siRNA) [compound 2394]
Relative Rluc-Hif2α (0.1 nM RNAi trigger): 0.533 ± 0.076 | Relative Rluc-Hif2α (1 nM RNAi trigger): 0.254 ± 0.026
